Test results as given in paper PMC12654037, “Norditerpene Natural Products from Subterranean Fungi with Anti-Parasitic Activity” (Microorganisms, 2025).

Tests used:
HuF fibroblast cell line = details: sub-confluent; ref Rusman et al. 2020 [25]; cited from earlier work
C. parvum = C. parvum growth inhibition assay (Cp-NLuc-infected HCT-8 cells); assay type: cell-based, Cryptosporidium parvum; details: for parasite inhibition in pilot screen: CpNLuc-infected HCT-8 cells, initial dose 5 µg/mL; for EC50: Cryptosporidium parvum, HCT-8, intracellular nanoluciferase-expressing C. parvum in vitro, Figure 1 table, read-out: EC50 (μM), C. parvum
Procedure: C. parvum growth inhibition assays: The in vitro growth inhibition assay of C. parvum has been previously described. Briefly, clear-bottom, white-sided 96 well plates were seeded with HCT-8 cells. Once the cells reached between 50% and 75% confluency, they were infected with Cp-NLuc oocysts (10,000/well) in complete media containing 0.6% taurocholate. At 24 h post-infection (hpi), the infected cells were treated with compounds at various concentrations. DMSO was used as a vehicle control in parallel. Parasite growth was determined at 72 hpi by measuring relative luminescence units (RLUs) using Promega Nano-Glo substrate (Promega, Madison, WI, USA) and a SpectraMax® L Microplate Reader (Molecular Devices, San Jose, CA, USA). The percent inhibition of parasite growth was calculated as [(RLUDMSO − RLUcompound)/RLUDMSO] × 100.

P. falciparum line Dd2 = experiment: Plasmodium falciparum growth inhibition assay (SYBR Green I), Dd2; details: for EC50: Plasmodium falciparum, DD2, 72 h, read-out: EC50 Dd2 (M)
Procedure: (§2) Plasmodium falciparum growth inhibition assay: Antiplasmodial EC50 results were determined using a fluorescence-based SYBR Green I assay performed using asynchronous cultures [30, 35]. […] Plates were subsequently frozen at −80 °C to facilitate lysis. […] Relative fluorescence units (RFUs) were normalized based on chloroquine-treated and no treatment controls. Serial dilutions of compounds were prepared in RPMI with final assay conditions of ≤0.2% DMSO. Each assay was conducted in triplicate with three biological replicates.

HepG2 human hepatocytes = experiment: HepG2 cytotoxicity assay (MTS); assay type: cell-based; details: 48 h, mean +/- SD
Procedure: HepG2 cytotoxicity assay: Mammalian cell cytotoxicity was assessed in HepG2 human hepatocytes using an MTS 3-(4,5-dimethylthiazol-2-yl)-5-(3-carboxymethoxyphenyl)-2-(4-sulfophenyl)-2H-tetrazolium)-based cytotoxicity assay. For cytotoxicity testing, ∼2250 cells were seeded into each well of a 384-well microtiter plate and incubated for 24 h. Serial dilutions of the compounds were added in triplicate starting at 25 μM. Cells were further incubated for an additional 48 h at 37 °C in an atmosphere containing 5% CO2. Zero-growth control wells were incubated with 5% Triton X-100 for 5 min prior to MTS addition. Following the addition of MTS to all wells, the plates were incubated for an additional 4 h under the same environmental conditions before taking absorbance measurements. Absorbance values were recorded at 490 nm using a Synergy Neo2 multimode reader (BioTek), and values were normalized based on Triton X-100-lysed and no treatment controls. Samples were run in triplicate in each assay, and the experiments were repeated three times.

P. falciparum 3D7 = experiment: Plasmodium falciparum growth inhibition assay (SYBR Green I), 3D7; details: 3D7, 72 h, read-out: EC50 3D7(M)
Procedure: as §2

HCT-8 cells = experiment: HCT-8 cytotoxicity assay; assay type: cell-based
Procedure: (§1) HCT-8 and HFF cytotoxicity assays: Cytotoxicity of the compounds was determined against both confluent (the conditions of the infection assays) and growing HCT-8 and HFF host cells, as previously described. Cells were seeded into white-sided, clear-bottom 96-well plates and grown to either 40% or 100% confluency. Compounds were added to cells at various concentrations up to 100 µM in a final DMSO concentration of 0.5%. DMSO was run in parallel as a vehicle control. After 48 h, the viability of the cells was determined by either quantification of cellular ATP (Cell-Titer Glo cell viability assay; Promega, Madison WI, USA) or by MTT assay. Viability was determined 24 h after compound addition to HFF cells or 48 h after compound addition to HCT-8 cells or HepG2 cells. The percent cell growth was then calculated with the following formula: % Cell Growth = [RLUcompound/RLUDMSO] × 100. Samples were run in triplicate with two to three biological replicates.

HFF cells = experiment: HFF cytotoxicity assay; assay type: cell-based; details: confluent
Procedure: as §1

C. parvum sporozoites = experiment: C. parvum invasion inhibition assay; assay type: cell-based, Cryptosporidium parvum; details: 100 nM, 3 h infection
Procedure: C. parvum excystation and invasion assays: Oocyst excystation rates in the presence of compounds were determined as previously described. The C. parvum invasion inhibition assays were conducted in two formats. In the first format, described previously, HCT-8 cells were seeded on glass slides (CELLTREAT Scientific Product, Pepperell, MA, USA) and allowed to grow to confluence. Oidiolactone A was added to the cells for one hour. TrtE and DMSO were run in parallel as positive and negative controls, respectively. The cell monolayers were then infected with 1.2 × 10^6 wild-type C. parvum oocysts. After 3 h of incubation at 37 °C, the slides were washed five times with 111 mM D-galactose, fixed with 4% paraformaldehyde, and permeabilized with 0.25% Triton-X. C. parvum sporozoites were detected with rabbit anti-gp40 [39] and Alexa Fluor 594 goat anti-rabbit antibodies. The HCT-8 cell nuclei were stained with 0.09 mM Hoechst. Slides were coded to enable unbiased counting, and sporozoites from at least 10 randomly selected fields were counted in each sample at 100× magnification (Zeiss® Axioscope 5). The percentage of invaded parasites was determined using the following equation: % Invaded parasites = [parasitescompound/parasitesDMSO] × 100. This experiment was run in duplicate with two biological replicates. […]

SMILES	TC50 HuF (sub-confluent) (HuF fibroblast cell line)	parasite inhibition in pilot screen (C. parvum)	EC50 (P. falciparum line Dd2)	TC50 HepG2 (HepG2 human hepatocytes)	EC50 (P. falciparum 3D7)	TC50 HCT-8 (confluent) (HCT-8 cells)	TC50 HCT-8 (sub-confluent) (HCT-8 cells)	TC50 HFF (confluent) (HFF cells)	EC50 (C. parvum)	SI: selectivity index=EC50 HepG2/ EC50 compound (P. falciparum line Dd2)	effect on parasite invasion (positive control) (C. parvum sporozoites)
COC(=O)/C=C1/[C@]2(C(OC)OC)O[C@@H]2[C@H]2OC(=O)[C@@]3(C)CCC[C@@]1(C)[C@@H]23 [compound 5, oidiolactone H]	> 30 µM	abolishes inhibitory activity	–	–	–	–	–	–	–	–	–
C=C1C(O)C[C@@H]2[C@](C)(CCC[C@]2(C)C(=O)O)[C@H]1CC(=O)O (stereo partly drawn) [compound 14, LL-Z1271β]	> 30 µM	–	> 5e-06 M	> 25 µM	> 5e-06 M	–	–	–	–	–	–
C[C@@]12CCC[C@]3(C)C4=CC(=O)O[C@@H](O)[C@]45O[C@@H]5[C@@H](OC1=O)[C@@H]23 [compound 3, oidiolactone D]	> 30 µM	–	> 5e-06 M	> 25 µM	> 5e-06 M	–	–	–	–	–	–
C[C@]12C(=O)O[C@@H]3C=C4C(=CC(=O)O[C@@H]4O)[C@@](C)(CC[C@H]1O)[C@@H]32 [compound 9, oidiolactone K]	> 30 µM	–	> 5e-06 M	> 25 µM	> 5e-06 M	–	–	–	–	–	–
C[C@]1(C(=O)O)CCC[C@]2(C)C3=CC(=O)OCC3=CC[C@@H]12 [compound 11, oidiodendronic acid]	> 30 µM	–	> 5e-06 M	> 25 µM	> 5e-06 M	> 30 µM	19.7 ± 4.8 µM	> 30 µM	9.1 µM	–	–
CO[C@H]1OC(=O)C=C2C1=C[C@H]1OC(=O)[C@@]3(C)[C@H](O)CC[C@@]2(C)[C@@H]13 [compound 8, oidiolactone J]	> 30 µM	–	> 5e-06 M	> 25 µM	> 5e-06 M	> 30 µM	> 30 µM	> 30 µM	7.8 µM	–	–
C[C@@]12CCC[C@]3(C)C4=CC(=O)O[C@H](O)C4=C[C@@H](OC1=O)[C@@H]23 [compound 10, yukonin]	–	–	–	–	–	> 30 µM	2.5 ± 0.3 µM	> 30 µM	1.09 µM	–	–
C[C@]12CCC[C@](C)(C(=O)O)[C@@H]1C=C[C@]1(O)COC(=O)C[C@H]21 [compound 13, oidiolactone E]	–	–	> 5e-06 M	> 25 µM	> 5e-06 M	–	–	–	–	–	–
C[C@@]12CCC[C@]3(C)c4cc(=O)occ4[C@H](O)[C@@H](OC1=O)[C@@H]23 [compound 12, oidiolactone L]	> 30 µM	inactive	> 5e-06 M	> 25 µM	> 5e-06 M	–	–	–	–	–	–
C[C@]12C(=O)O[C@@H]3[C@H]4O[C@@]45C(=CC(=O)O[C@H]5O)[C@@](C)(CC[C@H]1O)[C@@H]32 [compound 4, oidiolactone G]	> 30 µM	eliminates activity	> 5e-06 M	> 25 µM	> 5e-06 M	–	–	–	–	–	–
COC(=O)/C=C1/[C@]2(C=O)O[C@@H]2[C@H]2OC(=O)[C@@]3(C)CCC[C@@]1(C)[C@@H]23 [compound 6, oidiolactone I]	> 30 µM	–	> 4.99e-06 M	> 25 µM	3.65e-06 ± 5.96e-07 M	> 30 µM	4.8 ± 0.7 µM	> 30 µM	7.8 µM	–	–
C[C@@]12CCC[C@]3(C)C4=CC(=O)OC[C@]45O[C@@H]5[C@@H](OC1=O)[C@@H]23 [compound 2, oidiolactone C]	> 30 µM	–	2.49e-06 ± 1.98e-07 M	17.1 ± 0.821 µM	2.78e-06 ± 3.97e-07 M	> 30 µM	1.35 ± 0.2 µM	> 30 µM	1.8 µM	7	–
C[C@@H]1CCC2CC(=O)C[C@@H](O)CC/C=C/C=C\CC[C@H](C)OC(=O)[C@@H]3O[B-]45O[C@@H](C(=O)O[C@@H](C)CC/C=C\C=C\CC[C@H](O)CC(=O)CC6CC[C@@H](C)[C@]3(O6)O4)[C@@]1(O2)O5 [tartrolon E, reference compound]	–	–	–	–	–	–	–	–	–	–	completely inhibited parasite invasion
